The record followed here is EP0683161A1, “Ester of 4-amino-5-chloro-2-methoxybenzoic acid, process for their preparation and pharmaceutical compositions containing them” (MIDY S.p.A., priority 1994, dated 1995).

The target of assay [1] is T1, récepteur 5-HT₃ (Rattus norvegicus, UniProt P35563).
T1 construct: les sites de liaison 5-HT₃ présents dans le cortex cérébral du rat; from tissue; host or cells: rat cerebral cortex membranes
T1 sequence (P35563 24-483): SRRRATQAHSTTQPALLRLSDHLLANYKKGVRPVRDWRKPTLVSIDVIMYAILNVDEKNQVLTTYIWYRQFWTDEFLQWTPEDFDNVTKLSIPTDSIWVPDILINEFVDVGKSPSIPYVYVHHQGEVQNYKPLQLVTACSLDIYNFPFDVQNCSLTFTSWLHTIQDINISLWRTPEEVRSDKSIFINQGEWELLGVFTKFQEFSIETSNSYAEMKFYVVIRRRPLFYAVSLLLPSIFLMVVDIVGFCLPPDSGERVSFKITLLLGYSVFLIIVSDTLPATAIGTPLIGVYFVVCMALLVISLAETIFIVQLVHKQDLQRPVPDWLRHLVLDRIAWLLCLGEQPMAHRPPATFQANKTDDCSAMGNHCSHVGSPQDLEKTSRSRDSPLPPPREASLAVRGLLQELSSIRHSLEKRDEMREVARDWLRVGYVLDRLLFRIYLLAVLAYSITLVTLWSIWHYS
As to the kind of experiment: in vitro binding to 5-HT3 sites of rat cerebral cortex, displacement of [3H] BRL 43694 (granisetron). Conditions: rat cerebral cortex membranes, labelled ligand 0,5 nM. The method, then: Afin de tester l'affinité du composé de formule (I) relativement au récepteur 5-HT₃, on a effectué des essais de liaison in vitro en utilisant les sites de liaison 5-HT₃ présents dans le cortex cérébral du rat (G.J. Kilpatrick, B.J. Jones et M.B. Tyers, Nature, 1987; 330: 746-8) et comme ligand marqué le [³H] BRL 43694 (granisetron), un antagoniste des récepteurs 5-HT₃ puissant et spécifique, à la concentration de 0,5 nM.
La préparation des membranes et le test de liaison ont été effectués selon la méthode décrite par Nelson et Thomas (D.R. Nelson et D.R. Thomas, Biochem. Pharmacol., 1989; 38: 1693-5).
Les résultats ont été évalués avec des méthodes d'ajustement ("fitting") non linéaire "Accufit saturation", pour les études de saturation (H.A. Feldman, Analyt. Biochem., 1972; 48: 317-38) et "Accufit competition", pour les études de déplacement (H.A. Feldman, D. Rodbard et D. Levine, Analyt. Biochem., 1972; 45: 530-56).

The target of assay [2] is récepteurs 5-HT₄ (Rattus norvegicus, UniProt Q62758). As to the kind of experiment: 5-HT relaxation of carbachol-contracted rat oesophagus tunica muscularis mucosae (Baxter and Clarke method). Conditions: rat oesophagus tunica muscularis mucosae contracted by carbachol; result in words only.
Description: De plus, toujours pour l'évaluation de l'activité 5-HT₄, on a soumis le composé de formule (I) à un essai sur la tunica muscolaris mucosae de l'oesophage de rat contracté par du carbacol. […] Des rats mâles Crl:CD(SD)BR (Charles River Italia) d'un poids moyen de 250 g sont sacrifiés par dislocation cervicale. Un segment d'oesophage d'environ 2 cm est prélevé au niveau intratoraxique à proximité du diaphragme. La tunica muscolaris mucosae est ensuite isolée et suspendue dans un bain pour organes isolés de 20 ml contenant une solution de Krebs en présence d'hydrocortisone (3·10⁻⁷ M) à 37°C aérée avec 95% O₂ et 5% CO₂. Le tissu est relié à un transducteur isotonique et soumis à une charge de 1 g. La préparation est incubée avec de la pargiline (10⁻⁴ M) pendant 30 minutes et lavée plusieurs fois. Après 60 minutes environ, on contracte le tissu avec des doses cumulatives de carbacol (10⁻⁶, 2·10⁻⁶, 3·10⁻⁶, 4·10⁻⁶ M); de cette manière, on obtient un tonus du tissu stable dans le temps. La 5-HT (10⁻¹⁰ et 10⁻⁶ M), qui est ajoutée cumulativement, relaxe l'oesophage grâce à l'activation des récepteurs 5-HT₄. Trois courbes de carbacol sont construites par préparation toutes les 90 minutes. Après chaque courbe, on procède au moins à 4 lavages. Aussi bien la contraction provoquée par le carbacol que les effets sur celle-ci sont identiques et peuvent être reproduits. […]
In assay [3] the target is T2, récepteur 5-HT₄ (Cavia porcellus, UniProt O70528).
T2 construct: On isole le plexus myentérique à partir de segments d'iléon de 3 cm environ; from tissue; host or cells: guinea pig ileum myenteric plexus (isolated organ bath)
The assay can be described thus: 5-HT response of the electrically stimulated guinea pig ileum myenteric plexus (modified Craig and Clarke test). On the set-up: species or system cobayes. Conditions: 30 min incubation, cumulative 5-HT curve 10⁻¹⁰ to 10⁻⁵M. The text has this: Dans le but d'évaluer l'activité vis-à-vis du récepteur 5-HT₄, on a soumis les composés de l'invention à l'essai décrit par D.A. Craig et D.E. Clarke. (J. Pharmacol. Exp. Ther., 1990, 252: 1378-86) en lui apportant quelques modifications.
Des cobayes albinos mâles - Charles River Italia - (poids moyen de 500 g) sont sacrifiés par décapitation. On isole le plexus myentérique à partir de segments d'iléon de 3 cm environ, prélevés à 10 cm de la jonction iléooeecale; on place le plexus dans un bain de 20 ml pour organes isolés, contenant une solution de Krebs et de l'acide ascorbique à raison de 1 mg/ml. On maintient la solution, aérée au carboxygène, à la température de 37°C. Le plexus, relié à un transducteur isotonique et soumis à une charge de 0,5 g, est stimulé électriquement de façon supramaximale (fréquence 0,2 Hz, durée […]) par une électrode coaxiale au platine. La préparation est traitée avec de la phénoxybenzamine 10⁻⁷M pendant 30 minutes et, ensuite, lavée plusieurs fois. On réduit le voltage jusqu'à obtenir un effet stimulant de 50% par rapport au maximum et le plexus est ensuite stimulé par la sérotonine à raison de 3·10⁻⁷M. Après lavage et stabilisation, la préparation est prête pour l'essai des composés à activité 5-HT₄. Trois courbes cumulatives de 5-HT sont construites toutes les 60 minutes. […]

Assay [4] concerns the target récepteur 5-HT₄ (Homo sapiens, UniProt Q13639). As to the kind of experiment: activity of the separated cis and trans isomers at the 5-HT4 receptor (test not specified). Conditions: cis and trans isomers evaluated separately.

récepteurs 5-HT₄, sequence (Q62758 whole entry): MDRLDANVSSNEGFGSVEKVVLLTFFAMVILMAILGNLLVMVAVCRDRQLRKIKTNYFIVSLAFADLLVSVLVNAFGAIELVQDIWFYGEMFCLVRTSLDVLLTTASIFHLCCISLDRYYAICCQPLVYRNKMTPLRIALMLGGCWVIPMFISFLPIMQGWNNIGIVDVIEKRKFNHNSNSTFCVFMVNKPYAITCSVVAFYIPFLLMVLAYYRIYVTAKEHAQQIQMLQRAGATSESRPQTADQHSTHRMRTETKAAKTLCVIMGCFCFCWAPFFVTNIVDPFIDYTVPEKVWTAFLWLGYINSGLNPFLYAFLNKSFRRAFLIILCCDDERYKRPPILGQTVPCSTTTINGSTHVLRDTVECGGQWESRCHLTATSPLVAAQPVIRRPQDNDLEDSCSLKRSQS
récepteur 5-HT₄ (Homo sapiens, UniProt Q13639), sequence (Q13639 whole entry): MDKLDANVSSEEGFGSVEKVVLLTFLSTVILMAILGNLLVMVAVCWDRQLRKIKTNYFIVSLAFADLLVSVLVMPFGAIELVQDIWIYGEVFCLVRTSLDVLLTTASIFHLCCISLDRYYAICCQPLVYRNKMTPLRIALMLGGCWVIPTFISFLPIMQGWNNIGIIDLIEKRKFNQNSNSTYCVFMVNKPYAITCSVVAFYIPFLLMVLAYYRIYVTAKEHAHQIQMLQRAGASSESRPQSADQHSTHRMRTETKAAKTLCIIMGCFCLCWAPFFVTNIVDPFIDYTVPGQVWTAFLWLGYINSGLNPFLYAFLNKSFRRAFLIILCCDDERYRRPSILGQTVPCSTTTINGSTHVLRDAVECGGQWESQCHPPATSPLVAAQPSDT
T2 sequence (O70528 whole entry): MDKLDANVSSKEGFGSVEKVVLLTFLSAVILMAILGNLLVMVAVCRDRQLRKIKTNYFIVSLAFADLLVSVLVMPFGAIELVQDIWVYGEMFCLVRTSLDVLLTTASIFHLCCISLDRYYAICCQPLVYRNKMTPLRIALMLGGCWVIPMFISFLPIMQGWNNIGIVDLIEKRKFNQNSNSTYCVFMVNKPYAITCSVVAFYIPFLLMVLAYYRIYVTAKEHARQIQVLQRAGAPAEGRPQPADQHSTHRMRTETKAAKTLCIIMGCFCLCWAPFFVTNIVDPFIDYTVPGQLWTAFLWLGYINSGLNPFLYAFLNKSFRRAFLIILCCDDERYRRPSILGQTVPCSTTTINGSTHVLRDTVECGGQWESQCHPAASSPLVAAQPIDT

`COc1cc(N)c(Cl)cc1C(=O)OCCN1CC(C)CC(C)C1` (stereo not shown) [composé de formule (I), ester 3,5-diméthylpipéridinoéthyliquede l'acide 4-amino-5-chloro-2-méthoxybenzoïque]: the “déplacement du [³H] BRL 43694” value in assay [1] is “inactif”. Moreover, the “pA₂ (antagonism of 5-HT relaxation)” value in assay [2] is reported as “très efficace”. For the same compound, the “IC₅₀, dose qui réduit de 50% la réponse de la 5-HT” value in assay [3] is given as “quelques nanomoles”.

On to `COc1cc(N)c(Cl)cc1C(=O)OCCN1CC(C)CC(C)C1` (stereo not drawn) [isomère cis, isomère cis de l'ester 3,5-diméthylpipéridinoéthyliquede l'acide 4-amino-5-chloro-2-méthoxybenzoïque], for which the “activité vis-à-vis du récepteur 5-HT₄” value in assay [4] is “le plus actif”.
